Data set [1] has as its target T1, Cyclin-dependent kinase 9 (Homo sapiens, UniProt P50750). In words: Inhibition of CDK9 (unknown origin) at 20 nM in presence of ATP by ADP-Glo kinase assay relative to control. On the technique in general: ADP-Glo turns the ADP formed in a reaction into a luminescent signal.
The target in data set [2] is T1, Cyclin-dependent kinase 9. In words: Inhibition of CDK9 (unknown origin) in presence of ATP by ADP-Glo kinase assay.
Another data set concerns CWR22R. Kind of data set: Antiproliferative activity against human 22Rv1 cells assessed as reduction in cell viability incubated for 72 hrs by SRB assay. The data set is classed as functional, cell-based. Particulars: 22Rv1, 72 h. Background: In SRB staining, fixed cells bind dye roughly in proportion to their protein.
The target of data set [3] is T2, Protein cereblon/Cyclin-dependent kinase 9 (Homo sapiens, UniProt P50750+Q96SW2). In words: PROTAC activity at CRBN/CDK9 in human 22Rv1 cells assessed as reduction in cyclin T1 expression at 1.5 uM incubated for 24 hrs by Western blotting analysis. In kind it is cell-based. For orientation: A western blot detects proteins with antibodies after separation by electrophoresis.
T2 sequence (P50750 whole entry, looked up): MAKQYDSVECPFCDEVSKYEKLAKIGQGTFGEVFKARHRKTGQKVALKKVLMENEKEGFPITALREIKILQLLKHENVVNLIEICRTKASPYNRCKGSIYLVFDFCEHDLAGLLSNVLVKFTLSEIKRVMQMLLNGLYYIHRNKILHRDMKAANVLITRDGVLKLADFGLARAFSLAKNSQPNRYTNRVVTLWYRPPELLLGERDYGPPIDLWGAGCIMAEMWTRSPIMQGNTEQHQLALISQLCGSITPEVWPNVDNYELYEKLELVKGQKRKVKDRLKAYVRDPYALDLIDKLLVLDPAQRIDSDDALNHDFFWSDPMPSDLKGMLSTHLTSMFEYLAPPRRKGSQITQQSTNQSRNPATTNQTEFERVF
T2 sequence (Q96SW2 whole entry, looked up): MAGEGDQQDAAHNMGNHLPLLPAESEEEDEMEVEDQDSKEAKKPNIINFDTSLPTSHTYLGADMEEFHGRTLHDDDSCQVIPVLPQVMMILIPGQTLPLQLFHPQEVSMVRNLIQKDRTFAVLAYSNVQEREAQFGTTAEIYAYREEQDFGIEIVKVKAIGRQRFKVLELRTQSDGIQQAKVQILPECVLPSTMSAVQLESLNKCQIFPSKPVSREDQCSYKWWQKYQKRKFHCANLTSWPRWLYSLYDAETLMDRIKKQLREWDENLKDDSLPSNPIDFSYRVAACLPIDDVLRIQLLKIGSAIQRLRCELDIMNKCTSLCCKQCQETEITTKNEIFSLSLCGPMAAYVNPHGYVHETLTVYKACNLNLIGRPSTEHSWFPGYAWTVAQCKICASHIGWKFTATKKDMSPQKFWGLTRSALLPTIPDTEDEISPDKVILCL

The nature of data set [4]: Solubility of the compound in water at pH 7.4 by shake flask method. In kind it is physicochemical.
A short description of data set [5]: Solubility of the compound in water at pH 6.0 by shake flask method. In kind it is physicochemical.
Data set [6] concerns the target T2, Protein cereblon/Cyclin-dependent kinase 9. In words: PROTAC activity at CRBN/CDK9 in human 22Rv1 cells assessed as degradation of CDK9 protein at 100 nM incubated for 12 hrs by Western blotting analysis relative to control. In kind it is cell-based.
Data set [7] shares this target. Kind of data set: PROTAC activity at CRBN/CDK9 in human 22Rv1 cells assessed as degradation of CDK9 protein at 20 nM incubated for 12 hrs by Western blotting analysis relative to control. In kind it is cell-based.
Data set [8] has the same target. Kind of data set: PROTAC activity at CRBN/CDK9 in human 22Rv1 cells assessed as degradation of CDK9 protein at 100 nM incubated for 12 hrs by Western blotting analysis. In kind it is cell-based.

Each structure is given as a SMILES string. In brackets after ≈: the same amount, converted by molar mass. Activity calls are given as the source filed them. No cut-off for these calls is given here.

As usually defined, the inhibition is how much of the control response was suppressed. One may read the IC50 as the concentration that inhibits the measured activity by half. As a reminder, the solubility (thermodynamic) is the concentration in solution at equilibrium with solid.

T1 sequence (P50750 whole entry): as the sequence (P50750 whole entry, looked up) above

Turning to `COc1cc(O)c2c(=O)cc(-c3ccc(N4CCN(C)CC4)cc3)oc2c1C1=CCN(C)CC1`, the inhibition in data set [1] was determined as 69.2%. In addition, the results for the IC50 (in data set [2]; with CWR22R) were 66.7 nM and 1250 nM, respectively. In addition, the outcome in [3] was inactive.

Turning to `COc1cc(O)c2c(=O)cc(-c3ccc(N4CCN(C(=O)CCCCCOc5cccc6c5C(=O)N(C5CCC(=O)NC5=O)C6=O)CC4)cc3)oc2c1C1=CCN(C)CC1` (stereo unspecified), the inhibition in data set [1] stood at 69.9%. Further, the thermodynamic solubility in data set [4] and in [5] was < 10 µg/mL throughout. Also, the IC50 in the data set on CWR22R stood at 650 nM.

With `COc1cc(O)c2c(=O)cc(-c3ccc(N4CCN(C(=O)CNc5cccc6c5C(=O)N(C5CCC(=O)NC5=O)C6=O)CC4)cc3)oc2c1C1=CCN(C)CC1` (stereo unspecified), the inhibition in [1] came to 84.1%. For the same compound, the solubility (thermodynamic) was 21 µg/mL (≈ 27.6 µM) in [4] and < 10 µg/mL in [5]. Besides, the Activity in [6] was found to be 80%. Further, the IC50 in the data set with CWR22R was determined as 100 nM.

As to `COc1cc(O)c2c(=O)cc(-c3ccc(N4CCN(C(=O)C5CCN(c6ccc7c(c6)C(=O)N(C6CCC(=O)NC6=O)C7=O)CC5)CC4)cc3)oc2c1C1=CCN(C)CC1` (stereo unspecified), in data set [1], the inhibition was found to be 90.4%. Moreover, the results for the solubility (thermodynamic) in data set [4] and in data set [5] were 21 µg/mL (≈ 25.8 µM) and < 10 µg/mL, respectively. Further, in the data set with CWR22R, the IC50 was 20 nM. Also, the Activity in data set [7] was > 50%.

Consider `COc1cc(O)c2c(=O)cc(-c3ccc(N4CCN(C(=O)CCCCOc5cccc6c5C(=O)N(C5CCC(=O)NC5=O)C6=O)CC4)cc3)oc2c1C1=CCN(C)CC1` (stereo unspecified), for which, in [1], the inhibition was 74.2%. Moreover, the solubility (thermodynamic) in data set [4] and in data set [5] was < 10 µg/mL throughout. For the same compound, in the data set on CWR22R, the IC50 amounted to 860 nM. Moreover, in data set [8], the outcome was Active.

With `COc1cc(O)c2c(=O)cc(-c3ccc(N4CCN(C(=O)CCCCCCCOc5cccc6c5C(=O)N(C5CCC(=O)NC5=O)C6=O)CC4)cc3)oc2c1C1=CCN(C)CC1` (stereo unspecified), the inhibition in data set [1] stood at 69.5%. The thermodynamic solubility in data set [4] and in [5] was < 10 µg/mL throughout. The 50% inhibitory concentration (IC50) with CWR22R is 1810 nM.

Regarding `COc1cc(O)c2c(=O)cc(-c3ccc(N4CCN(CC5CCN(c6cccc7c6C(=O)N(C6CCC(=O)NC6=O)C7=O)CC5)CC4)cc3)oc2c1C1=CCN(C)CC1` (stereo unspecified), the inhibition in data set [1] turned out to be 89.3%. The solubility (thermodynamic) is 41 µg/mL (≈ 51.2 µM) in data set [4] and 193 µg/mL (≈ 241 µM) in data set [5]. In addition, the IC50 with CWR22R amounted to 70 nM.

Consider `COc1cc(O)c2c(=O)cc(-c3ccc(N4CCN(C(=O)CCCCCCCCCOc5cccc6c5C(=O)N(C5CCC(=O)NC5=O)C6=O)CC4)cc3)oc2c1C1=CCN(C)CC1` (stereo unspecified), for which, in data set [1], the inhibition is 34.2%. The thermodynamic solubility in data set [4] and in [5] was < 10 µg/mL throughout. Moreover, the IC50 in the data set with CWR22R amounted to 120 nM. In addition, the result in data set [8] was Active.

For `COc1cc(O)c2c(=O)cc(-c3ccc(N4CCN(C(=O)CCCOc5cccc6c5C(=O)N(C5CCC(=O)NC5=O)C6=O)CC4)cc3)oc2c1C1=CCN(C)CC1` (stereo unspecified), in data set [1], the inhibition was found to be 79%. Also, the solubility (thermodynamic) in data set [4] and in data set [5] was < 10 µg/mL each time. Also, the IC50 in the data set on CWR22R was 410 nM. Moreover, the outcome in data set [8] was Active.

`COc1cc(O)c2c(=O)cc(-c3ccc(N4CCN(CCC5CCN(c6ccc7c(c6)C(=O)N(C6CCC(=O)NC6=O)C7=O)CC5)CC4)cc3)oc2c1C1=CCN(C)CC1` (stereo unspecified): the inhibition in [1] was found to be 75%. Further, the solubility (thermodynamic) is 45 µg/mL (≈ 55.2 µM) in data set [4] and 117 µg/mL (≈ 144 µM) in [5]. For the same compound, the IC50 in the data set on CWR22R was found to be 350 nM.

As to `CN1CC[C@H](c2c(O)cc(O)c3c(=O)cc(-c4ccccc4Cl)oc23)[C@H](O)C1` [ALVOCIDIB], in the data set on CWR22R, the IC50 was 240 nM.
